Measured values taken from patent publication US10150760B2, “Compounds for use in preparing heterocyclic triazole agonists of the APJ receptor” (AMGEN INC., priority 2016, dated 2018).

biological target: human APJ receptor (Homo sapiens (Human), UniProt P35414); test: [35S]GTPγS binding assay on membranes from CHO cells stably expressing human APJ receptor; format: biochemical; settings: read-out: Activity hAPJ SPA EC50 IP
Summary of the method: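 Membranes from CHO cells stably expressing human APJ incubated with ligand, 0.2 nM [35S]GTPγS and WGA SPA beads in HEPES pH 7.5 with 5 mM MgCl2, 200 mM NaCl, 3 μM GDP, 90 min at RT. Nonspecific binding defined with 100 μM GTPγS; EC50 by non-linear regression.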

Sequence of human APJ receptor (P35414 whole entry): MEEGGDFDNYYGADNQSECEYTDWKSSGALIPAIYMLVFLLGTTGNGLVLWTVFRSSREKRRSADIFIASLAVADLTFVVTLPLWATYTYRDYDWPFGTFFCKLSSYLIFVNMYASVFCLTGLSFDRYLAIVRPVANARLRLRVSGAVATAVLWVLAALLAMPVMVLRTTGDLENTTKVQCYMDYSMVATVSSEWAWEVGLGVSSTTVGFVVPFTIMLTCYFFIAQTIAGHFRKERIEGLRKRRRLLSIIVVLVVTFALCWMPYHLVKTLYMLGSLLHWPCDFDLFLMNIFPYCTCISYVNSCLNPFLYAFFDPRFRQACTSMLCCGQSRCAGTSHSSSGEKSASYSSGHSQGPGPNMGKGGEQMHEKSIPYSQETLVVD

| Substance | EC50 [nM] |
| --- | --- |
| (1S,2S)-N-(4-(4,6-dimethoxypyrimidin-5-yl)-5-((R)-tetrahydrofuran-3-yl)-4H-1,2,4-triazol-3-yl)-1-(5-fluoropyrimidin-2-yl)-1-isopropoxypropane-2-sulfonamide or (1S,2S)-N-(4-(4,6-dimethoxypyrimidin-5-yl)-5-((S)-tetrahydrofuran-3-yl)-4H-1,2,4-triazol-3-yl)-1-(5-fluoropyrimidin-2-yl)-1-isopropoxypropane-2-sulfonamide [Example 321.0] | 68 |
| (1S,2S)-N-(4-(4,6-dimethoxypyrimidin-5-yl)-5-((R)-tetrahydrofuran-3-yl)-4H-1,2,4-triazol-3-yl)-1-(5-fluoropyrimidin-2-yl)-1-isopropoxypropane-2-sulfonamide or (1S,2S)-N-(4-(4,6-dimethoxypyrimidin-5-yl)-5-((S)-tetrahydrofuran-3-yl)-4H-1,2,4-triazol-3-yl)-1-(5-fluoropyrimidin-2-yl)-1-isopropoxypropane-2-sulfonamide [Example 322.0] | 310 |
| (1S,2S)-N-(4-(4,6-dimethoxypyrimidin-5-yl)-5-((R)-tetrahydrofuran-3-yl)-4H-1,2,4-triazol-3-yl)-1-isopropoxy-1-(5-methylpyridin-2-yl)propane-2-sulfonamide or (1S,2S)-N-(4-(4,6-dimethoxypyrimidin-5-yl)-5-((S)-tetrahydrofuran-3-yl)-4H-1,2,4-triazol-3-yl)-1-isopropoxy-1-(5-methylpyridin-2-yl)propane-2-sulfonamide [Example 323.0] | 47 |
| (1S,2S)-N-(4-(4,6-dimethoxypyrimidin-5-yl)-5-((R)-tetrahydrofuran-3-yl)-4H-1,2,4-triazol-3-yl)-1-isopropoxy-1-(5-methylpyridin-2-yl)propane-2-sulfonamide or (1S,2S)-N-(4-(4,6-dimethoxypyrimidin-5-yl)-5-((S)-tetrahydrofuran-3-yl)-4H-1,2,4-triazol-3-yl)-1-isopropoxy-1-(5-methylpyridin-2-yl)propane-2-sulfonamide [Example 324.0] | 380 |
| (2R)-N-(4-(2,6-dimethoxyphenyl)-5-(tetrahydro-2H-pyran-4-yl)-4H-1,2,4-triazol-3-yl)-1-(5-fluoro-2-pyrimidinyl)-2-propanesulfonamide and (2S)-N-(4-(2,6-dimethoxyphenyl)-5-(tetrahydro-2H-pyran-4-yl)-4H-1,2,4-triazol-3-yl)-1-(5-fluoro-2-pyrimidinyl)-2-propanesulfonamide [Example 15.0] | 470 |
| (2R)-N-(4-(2,6-dimethoxyphenyl)-5-(tetrahydro-2H-pyran-4-yl)-4H-1,2,4-triazol-3-yl)-1-(5-fluoro-2-pyrimidinyl)-2-propanesulfonamide or (2S)-N-(4-(2,6-dimethoxyphenyl)-5-(tetrahydro-2H-pyran-4-yl)-4H-1,2,4-triazol-3-yl)-1-(5-fluoro-2-pyrimidinyl)-2-propanesulfonamide [Example 16.0] | 380 |
| (2R,3S)-N-(4-(2,6-dimethoxyphenyl)-5-((S)-tetrahydrofuran-2-yl)-4H-1,2,4-triazol-3-yl)-3-(5-methylpyrimidin-2-yl)butane-2-sulfonamide or (2R,3S)-N-(4-(2,6-dimethoxyphenyl)-5-((R)-tetrahydrofuran-2-yl)-4H-1,2,4-triazol-3-yl)-3-(5-methylpyrimidin-2-yl)butane-2-sulfonamide [Example 219.0] | 220 |
| (2R,3S)-N-(4-(2,6-dimethoxyphenyl)-5-((S)-tetrahydrofuran-2-yl)-4H-1,2,4-triazol-3-yl)-3-(5-methylpyrimidin-2-yl)butane-2-sulfonamide or (2R,3S)-N-(4-(2,6-dimethoxyphenyl)-5-((R)-tetrahydrofuran-2-yl)-4H-1,2,4-triazol-3-yl)-3-(5-methylpyrimidin-2-yl)butane-2-sulfonamide [Example 220.0] | 510 |
| (2S,3R)-3-(5-Chloropyrimidin-2-yl)-N-(4-(3,5-dibromo-2,6-dimethoxyphenyl)-5-((R)-tetrahydrofuran-3-yl)-4H-1,2,4-triazol-3-yl)butane-2-sulfonamide or (2S,3R)-3-(5-chloropyrimidin-2-yl)-N-(4-(3,5-dibromo-2,6-dimethoxyphenyl)-5-((S)-tetrahydrofuran-3-yl)-4H-1,2,4-triazol-3-yl)butane-2-sulfonamide [Example 254.0] | 310 |
| (2S,3R)-3-(5-chloro-2-pylimidinyl)-N-(4-(1,3-dimethoxy-2-propanyl)-5-((2R,5R)-5-methyltetrahydro-2-furanyl)-4H-1,2,4-triazol-3-yl)-2-butanesulfonamide or (2S,3R)-3-(5-chloro-2-pyrimidinyl)-N-(4-(1,3-dimethoxy-2-propanyl)-5-((2S,5S)-5-methyltetrahydro-2-furanyl)-4H-1,2,4-triazol-3-yl)-2-butanesulfonamide [Example 375.0] | 92 |
| (2S,3R)-3-(5-chloro-2-pyridinyl)-N-(4-(1,3-dimethoxy-2-propanyl)-5-((2R,5R)-5-methyltetrahydro-2-furanyl)-4H-1,2,4-triazol-3-yl)-2-butanesulfonamide or (2S,3R)-3-(5-chloro-2-pyridinyl)-N-(4-(1,3-dimethoxy-2-propanyl)-5-((2S,5S)-5-methyltetrahydro-2-furanyl)-4H-1,2,4-triazol-3-yl)-2-butanesulfonamide [Example 372.0] | 240 |
| (2S,3R)-3-(5-chloro-2-pyridinyl)-N-(4-(1,3-dimethoxy-2-propanyl)-5-((2R,5R)-5-methyltetrahydro-2-furanyl)-4H-1,2,4-triazol-3-yl)-2-butanesulfonamide or (2S,3R)-3-(5-chloro-2-pyridinyl)-N-(4-(1,3-dimethoxy-2-propanyl)-5-((2S,5S)-5-methyltetrahydro-2-furanyl)-4H-1,2,4-triazol-3-yl)-2-butanesulfonamide [Example 373.0] | 8 |
| (2S,3R)-3-(5-chloro-2-pyrimidinyl)-N-(4-(1,3-dimethoxy-2-propanyl)-5-((2R,5R)-5-methyltetrahydro-2-furanyl)-4H-1,2,4-triazol-3-yl)-2-butanesulfonamide or (2S,3R)-3-(5-chloro-2-pyrimidinyl)-N-(4-(1,3-dimethoxy-2-propanyl)-5-((2S,5S)-5-methyltetrahydro-2-furanyl)-4H-1,2,4-triazol-3-yl)-2-butanesulfonamide [Example 374.0] | 5.6 |

Now from value to substance:

| EC50 [nM] | Substance |
| --- | --- |
| 15 | (1S,2S)-N-(4-(2,6-dimethoxyphenyl)-5-((S)-1,4-dioxan-2-yl)-4H-1,2,4-triazol-3-yl)-1-isopropoxy-1-(5-methylpyrimidin-2-yl)propane-2-sulfonamide and (1S,2S)-N-(4-(2,6-dimethoxyphenyl)-5-((R)-1,4-dioxan-2-yl)-4H-1,2,4-triazol-3-yl)-1-isopropoxy-1-(5-methylpyrimidin-2-yl)propane-2-sulfonamide [Example 256.0] |
| 0.62 | (1S,2S)-N-(4-(2,6-dimethoxyphenyl)-5-((S)-5,5-dimethyltetrahydrofuran-2-yl)-4H-1,2,4-triazol-3-yl)-1-isopropoxy-1-(5-methylpyrimidin-2-yl)propane-2-sulfonamide or (1S,2S)-N-(4-(2,6-dimethoxyphenyl)-5-((R)-5,5-dimethyltetrahydrofuran-2-yl)-4H-1,2,4-triazol-3-yl)-1-isopropxy-1-(5-methylpyrimidin-2-yl)propane-2-sulfonamide [Example 210.0] |
| 530 | (1S,2S)-N-(4-(4,6-dimethoxypyrimidin-5-yl)-5-((R)-5,5-dimethyltetrahydrofuran-3-yl)-4H-1,2,4-triazol-3-yl)-1-isopropoxy-1-(5-methylpyrimidin-2-yl)propane-2-sulfonamide or (1S,2S)-N-(4-(4,6-dimethoxypyrimidin-5-yl)-5-((S)-5,5-dimethyltetrahydrofuran-3-yl)-4H-1,2,4-triazol-3-yl)-1-isopropoxy-1-(5-methylpyrimidin-2-yl)propane-2-sulfonamide [Example 313.0] |
| 71 | (1S,2S)-N-(4-(4,6-dimethoxypyrimidin-5-yl)-5-((R)-5,5-dimethyltetrahydrofuran-3-yl)-4H-1,2,4-triazol-3-yl)-1-isopropoxy-1-(5-methylpyrimidin-2-yl)propane-2-sulfonamide or (1S,2S)-N-(4-(4,6-dimethoxypyrimidin-5-yl)-5-((S)-5,5-dimethyltetrahydrofuran-3-yl)-4H-1,2,4-triazol-3-yl)-1-isopropoxy-1-(5-methylpyrimidin-2-yl)propane-2-sulfonamide [Example 314.0] |
| 810 | (2R)-N-(4-(2,6-dimethoxyphenyl)-5-(tetrahydro-2H-pyran-4-yl)-4H-1,2,4-triazol-3-yl)-1-(5-fluoro-2-pyrimidinyl)-2-propanesulfonamide or (2S)-N-(4-(2,6-dimethoxyphenyl)-5-(tetrahydro-2H-pyran-4-yl)-4H-1,2,4-triazol-3-yl)-1-(5-fluoro-2-pyrimidinyl)-2-propanesulfonamide [Example 17.0] |
| 200 | (2S,3R)-3-(5-chloropyrimidin-2-yl)-N-(4-(2,6-dimethoxyphenyl)-5-((R)-1,1-dioxidotetrahydrothiophen-3-yl)-4H-1,2,4-triazol-3-yl)butane-2-sulfonamide or (2S,3R)-3-(5-chloropyrimidin-2-yl)-N-(4-(2,6-dimethoxyphenyl)-5-((S)-1,1-dioxidotetrahydrothiophen-3-yl)-4H-1,2,4-triazol-3-yl)butane-2-sulfonamide [Example 189.0] |
| 300 | (2S,3R)-3-(5-chloropyrimidin-2-yl)-N-(4-(2,6-dimethoxyphenyl)-5-((R)-1,1-dioxidotetrahydrothiophen-3-yl)-4H-1,2,4-triazol-3-yl)butane-2-sulfonamide or (2S,3R)-3-(5-chloropyrimidin-2-yl)-N-(4-(2,6-dimethoxyphenyl)-5-((S)-1,1-dioxidotetrahydrothiophen-3-yl)-4H-1,2,4-triazol-3-yl)butane-2-sulfonamide [Example 190.0] |
